Data from publication PMC10145010, “Tuning the Biological Activity of PI3Kδ Inhibitor by the Introduction of a Fluorine Atom Using the Computational Workflow” (Molecules, 2023).

biological target: T1, PI3Kδ (Homo sapiens, UniProt O00329); test: In vitro PI3Kδ inhibition assay (ADP-Glo kinase assay); format: biochemical; conditions: mean from two independent experiments, PIP2 substrate 30 μM, 25 °C, 1 h
T1 construct: purchased Merck Millipore
Description: All compounds were tested by a biochemical assay that measured the inhibition of phosphatidylinositol […] production by PI3K isoform. The potency of the tested compounds was assessed by determining the ability of PI3Kδ enzymes (Merck Millipore) to convert ATP to ADP during an enzymatic reaction in the presence of these compounds at decreasing doses. The experiments were carried out using the ADP-Glo kinase assay kit (Promega), according to the manufacturer’s protocol. PIP2 lipid vesicles containing phosphoserine (ThermoFisher Scientific, Waltham, MA, USA) were used as a substrate in the enzymatic reaction. The composition of the reaction mixture and reaction conditions for PI3Kδ were as follows: concentration of PI3Kδ enzyme: 10 ng; reaction temperature and time: 25 °C and 1 h; final concentration of PIP2 substrate: 30 μM; and reaction buffer: 50 mM of HEPES (pH 7.5), 50 mM NaCl, 3 mM MgCl2, and 0.025 mg/mL of BSA.
After the reaction, the ADP-Glo reagent and the kinase detection reagent were sequentially added. The reaction mixture was incubated for 40 min (25 °C, 600 rpm) after the addition of each reagent. Finally, luminescence intensity was measured and the IC50 value was calculated using GraphPad Prism 7 software (GraphPad, Boston, MA, USA). The results were presented as the mean value of IC50 obtained from at least two independent experiments.

T1 sequence (O00329 whole entry): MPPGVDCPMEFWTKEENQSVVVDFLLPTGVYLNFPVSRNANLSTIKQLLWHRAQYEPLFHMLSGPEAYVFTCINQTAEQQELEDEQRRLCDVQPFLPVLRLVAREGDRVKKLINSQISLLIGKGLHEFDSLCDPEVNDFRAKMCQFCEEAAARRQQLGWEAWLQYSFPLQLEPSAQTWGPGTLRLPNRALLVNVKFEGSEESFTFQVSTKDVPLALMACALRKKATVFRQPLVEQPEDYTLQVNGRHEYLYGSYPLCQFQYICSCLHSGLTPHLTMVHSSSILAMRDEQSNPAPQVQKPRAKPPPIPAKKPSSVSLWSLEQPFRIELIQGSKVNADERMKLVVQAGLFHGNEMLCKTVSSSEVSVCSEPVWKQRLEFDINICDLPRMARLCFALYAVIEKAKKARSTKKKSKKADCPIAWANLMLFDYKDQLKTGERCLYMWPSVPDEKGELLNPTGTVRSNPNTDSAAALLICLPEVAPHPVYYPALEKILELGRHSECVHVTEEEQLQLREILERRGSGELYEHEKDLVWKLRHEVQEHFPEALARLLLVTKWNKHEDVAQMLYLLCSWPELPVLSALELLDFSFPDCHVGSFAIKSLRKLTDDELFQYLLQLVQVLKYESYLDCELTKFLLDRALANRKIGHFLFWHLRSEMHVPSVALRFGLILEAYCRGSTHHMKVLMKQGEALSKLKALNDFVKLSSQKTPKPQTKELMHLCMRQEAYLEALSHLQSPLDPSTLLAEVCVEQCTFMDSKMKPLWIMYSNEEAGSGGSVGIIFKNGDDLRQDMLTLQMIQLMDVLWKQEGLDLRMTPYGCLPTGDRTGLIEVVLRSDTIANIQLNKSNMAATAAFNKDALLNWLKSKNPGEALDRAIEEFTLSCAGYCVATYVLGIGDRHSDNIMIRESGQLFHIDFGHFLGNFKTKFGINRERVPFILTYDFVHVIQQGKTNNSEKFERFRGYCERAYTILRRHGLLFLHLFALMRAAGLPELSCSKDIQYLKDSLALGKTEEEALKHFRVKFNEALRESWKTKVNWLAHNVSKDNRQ
T1 sequence (P27986 whole entry partner): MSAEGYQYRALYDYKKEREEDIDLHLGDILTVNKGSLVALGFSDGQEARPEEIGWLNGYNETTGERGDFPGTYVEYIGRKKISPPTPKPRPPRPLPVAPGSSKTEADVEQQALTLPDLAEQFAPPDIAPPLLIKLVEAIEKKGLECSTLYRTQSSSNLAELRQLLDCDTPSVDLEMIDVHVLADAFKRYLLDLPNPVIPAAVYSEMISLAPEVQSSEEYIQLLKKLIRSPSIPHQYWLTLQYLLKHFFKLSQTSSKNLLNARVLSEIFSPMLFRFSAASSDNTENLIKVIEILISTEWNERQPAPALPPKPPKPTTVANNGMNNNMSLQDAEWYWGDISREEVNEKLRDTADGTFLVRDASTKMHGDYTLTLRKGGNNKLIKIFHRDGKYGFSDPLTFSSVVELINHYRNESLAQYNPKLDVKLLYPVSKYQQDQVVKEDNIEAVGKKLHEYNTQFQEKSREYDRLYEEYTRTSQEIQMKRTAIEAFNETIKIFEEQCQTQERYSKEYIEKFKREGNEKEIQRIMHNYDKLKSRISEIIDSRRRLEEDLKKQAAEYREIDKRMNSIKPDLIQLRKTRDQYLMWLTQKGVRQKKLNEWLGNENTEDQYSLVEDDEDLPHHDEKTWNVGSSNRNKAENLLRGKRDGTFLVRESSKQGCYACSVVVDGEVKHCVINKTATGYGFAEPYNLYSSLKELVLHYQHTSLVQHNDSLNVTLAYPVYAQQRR

Row | SMILES | IC50 [nM]
1 | Fc1ccccc1CN1CCN(Cc2cc3nc(-n4c(C(F)F)nc5ccccc54)cc(N4CCOCC4)n3n2)CC1 [Compound 7] | 640
2 | Fc1cccc(CN2CCN(Cc3cc4nc(-n5c(C(F)F)nc6ccccc65)cc(N5CCOCC5)n4n3)CC2)c1 [Compound 8] | 751
3 | Fc1ccc(CN2CCN(Cc3cc4nc(-n5c(C(F)F)nc6ccccc65)cc(N5CCOCC5)n4n3)CC2)cc1 [Compound 9] | 489
4 | O=C(c1cc2nc(-n3c(C(F)F)nc4ccccc43)cc(N3CCOCC3)n2n1)N1CCN(Cc2ccccc2F)CC1 [Compound 11, 2-(Difluoromethyl)-1-(2-{4-[(2-fluorophenyl)methyl]piperazine-1-carbonyl}-7-(morpholin-4-yl)pyrazolo[1,5-a]pyrimidin-5-yl)-1H-benzimidazole] | 212
5 | O=C(c1cc2nc(-n3c(C(F)F)nc4ccccc43)cc(N3CCOCC3)n2n1)N1CCN(Cc2cccc(F)c2)CC1 [Compound 12, 2-(Difluoromethyl)-1-(2-{4-[(3-fluorophenyl)methyl]piperazine-1-carbonyl}-7-(morpholin-4-yl)pyrazolo[1,5-a]pyrimidin-5-yl)-1H-benzimidazole] | 92
6 | O=C(c1cc2nc(-n3c(C(F)F)nc4ccccc43)cc(N3CCOCC3)n2n1)N1CCN(Cc2ccc(F)cc2)CC1 [Compound 13, 2-(Difluoromethyl)-1-(2-{4-[(4-fluorophenyl)methyl]piperazine-1-carbonyl}-7-(morpholin-4-yl)pyrazolo[1,5-a]pyrimidin-5-yl)-1H-benzimidazole] | 181

The remaining lines, values ahead:

Row | IC50 [nM] | SMILES
7 | 44 | CC(C)(C)N1CCN(Cc2nn3c(N4CCOCC4)cc(-n4c(C(F)F)nc5ccccc54)nc3c2Cl)CC1 [Compound 4, 1-{2-[(4-Tert-butylpiperazin-1-yl)methyl]-3-chloro-7-(morpholin-4-yl)pyrazolo[1,5-a]pyrimidin-5-yl}-2-(difluoromethyl)-1H-benzimidazole]
8 | 50 | CC(C)(C)N1CCN(Cc2nn3c(N4CCOCC4)cc(-n4c(C(F)F)nc5ccccc54)nc3c2Br)CC1 [Compound 5, 1-{3-Bromo-2-[(4-tert-butylpiperazin-1-yl)methyl]-7-(morpholin-4-yl)pyrazolo[1,5-a]pyrimidin-5-yl}-2-(difluoromethyl)-1H-benzimidazole]
9 | 118 | FC(F)c1nc2ccccc2n1-c1cc(N2CCOCC2)n2nc(CN3CCN(Cc4ccccc4)CC3)cc2n1 [Compound 6, 1-{2-[(4-Benzylpiperazin-1-yl)methyl]-7-(morpholin-4-yl)pyrazolo[1,5-a]pyrimidin-5-yl}-2-(difluoromethyl)-1H-benzimidazole]
10 | 275 | O=C(c1cc2nc(-n3c(C(F)F)nc4ccccc43)cc(N3CCOCC3)n2n1)N1CCN(Cc2ccccc2)CC1 [Compound 10, 1-[2-(4-Benzylpiperazine-1-carbonyl)-7-(morpholin-4-yl)pyrazolo[1,5-a]pyrimidin-5-yl]-2-(difluoromethyl)-1H-benzimidazole]
